Results as given in ChEMBL document CHEMBL1129200, “Synthesis and cytotoxic activity of phenyl-hexahydropyrrolo[3,4-c]carbazoles” (Bioorg Med Chem Lett, 1996).

Tests used:
[1] = tested on: P388; assay: Cytotoxic activity against P-388 cell lines.; format: functional, cell-based; conditions: Mus musculus
[2] = tested on: A549; assay: Cytotoxic activity against A-549 cell lines.; format: functional, cell-based; conditions: Homo sapiens
[3] = tested on: HT-29; assay: Cytotoxic activity against HT-29 cell lines.; format: functional, cell-based; conditions: Homo sapiens
[4] = tested on: SK-MEL-28; assay: Cytotoxic activity against MEL-28 cell lines.; format: functional, cell-based; conditions: Homo sapiens
[5] = tested on: MDA-N; assay: Cytotoxic activity against MDA-N breast cancer cell lines.; format: functional; conditions: Homo sapiens
[6] = tested on: T47D; assay: Cytotoxic activity against T-47D breast cancer cell lines.; format: functional; conditions: Homo sapiens
[7] = tested on: RXF 393; assay: Cytotoxic activity against […] renal cancer cell lines.; format: functional; conditions: Homo sapiens
[8] = tested on: HL-60; assay: Cytotoxic activity against HL-60(TB) leukemia cell lines.; format: functional; conditions: Homo sapiens
[9] = tested on: UACC-62; assay: Cytotoxic activity against UACC-62 melanoma cell lines.; format: functional; conditions: Homo sapiens
[10] = tested on: BT-549; assay: Cytotoxic activity against […] breast cancer cell lines.; format: functional; conditions: Homo sapiens
[11] = tested on: U-251; assay: Cytotoxic activity against U251 CNS tumor cell line cell lines.; format: functional; conditions: Homo sapiens
[12] = tested on: SNB-19; assay: Cytotoxic activity against SNB-19 CNS tumor cell lines.; format: functional; conditions: Homo sapiens
[13] = tested on: K562; assay: Cytotoxic activity against K-562 leukemia cell lines.; format: functional; conditions: Homo sapiens
[14] = tested on: HOP-92; assay: Cytotoxic activity against HOP-92 non small cell lung cancer cell lines.; format: functional; conditions: Homo sapiens
[15] = tested on: MDA-MB-435; assay: Cytotoxic activity against MDA-MB-435 breast cancer cell lines.; format: functional; conditions: Homo sapiens
[16] = tested on: SK-MEL-2; assay: Cytotoxic activity against SK-MEL-2 melanoma cell lines.; format: functional; conditions: Homo sapiens
[17] = tested on: HOP-62; assay: Cytotoxic activity against HOP-62 non small cell lung cancer cell lines.; format: functional; conditions: Homo sapiens
[18] = tested on: A498; assay: Cytotoxic activity against A 498 renal cancer cell lines.; format: functional; conditions: Homo sapiens
[19] = tested on: OVCAR-4; assay: Cytotoxic activity against OVCAR-4 ovarian cancer cell lines.; format: functional; conditions: Homo sapiens
[20] = tested on: SNB-75; assay: Cytotoxic activity against SNB-75 CNS tumor cell line cell lines.; format: functional; conditions: Homo sapiens

Row | SMILES | IC50 [1] [µM] | IC50 [2] [µM] | IC50 [3] [µM] | IC50 [4] [µM] | GI50 [5] [µM] | GI50 [6] [µM] | GI50 [7] [µM] | GI50 [8] [µM] | GI50 [9] [µM] | GI50 [10] [µM] | GI50 [11] [µM] | GI50 [12] [µM] | GI50 [13] [µM] | GI50 [14] [µM] | GI50 [15] [µM] | GI50 [16] [µM] | GI50 [17] [µM] | GI50 [18] [µM] | GI50 [19] [µM] | GI50 [20] [µM]
1 | COc1cc([C@@H]2Cc3[nH]c4ccc(Br)cc4c3[C@@H]3C(=O)N(c4ccccc4)C(=O)[C@H]23)cc(OC)c1OC | > 17.8 | > 17.8 | > 17.8 | > 17.8 | – | – | – | – | – | – | – | – | – | – | – | – | – | – | – | –
2 | COc1cc([C@@H]2Cc3[nH]c4ccccc4c3[C@@H]3C(=O)N(c4ccccc4)C(=O)[C@H]23)cc(OC)c1OC | 0.5 | 2.1 | 2.1 | 2.1 | 30.2 | 25.1 | 20.4 | 31.6 | 24 | 25.1 | 34.7 | 25.7 | 31.6 | 13.2 | 21.9 | 27.5 | 16.2 | 33.1 | 26.9 | 26.9
3 | COc1cc([C@@H]2Cc3[nH]c4ccc(C)cc4c3[C@@H]3C(=O)N(c4ccccc4)C(=O)[C@H]23)cc(OC)c1OC | 20.1 | 20.1 | 20.1 | 20.1 | – | – | – | – | – | – | – | – | – | – | – | – | – | – | – | –
